Test results from ChEMBL document CHEMBL3991601, “The target landscape of clinical kinase drugs” (Science, 2017).
Calls of active or inactive are those of the source. Cut-off read from the data, not from the text of the source, for most assays here: actives have a measured Kd and inactives only a lower limit.

Key:
[1] = biological target: T1, Dual specificity mitogen-activated protein kinase kinase 6 (Homo sapiens, UniProt P52564)
T1 sequence (P52564 whole entry): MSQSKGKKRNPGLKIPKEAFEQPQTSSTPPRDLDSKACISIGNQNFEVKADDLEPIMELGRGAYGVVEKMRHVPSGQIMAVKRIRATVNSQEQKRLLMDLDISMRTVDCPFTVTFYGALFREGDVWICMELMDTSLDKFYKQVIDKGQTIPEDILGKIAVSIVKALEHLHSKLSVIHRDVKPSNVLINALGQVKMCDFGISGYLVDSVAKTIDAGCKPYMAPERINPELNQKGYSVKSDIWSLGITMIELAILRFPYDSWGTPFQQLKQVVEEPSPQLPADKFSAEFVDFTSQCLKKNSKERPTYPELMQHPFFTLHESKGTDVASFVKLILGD

[2] = biological target: NADH dehydrogenase [ubiquinone] 1 alpha subcomplex subunit 13 (Homo sapiens, UniProt Q9P0J0)
[3] = biological target: AP2-associated protein kinase 1 (Homo sapiens, UniProt Q2M2I8)
[4] = biological target: Cyclin-dependent kinase 3 (Homo sapiens, UniProt Q00526)
[5] = biological target: Deoxycytidine kinase (Homo sapiens, UniProt P27707)
[6] = biological target: Myosin-14 (Homo sapiens, UniProt Q7Z406)
[7] = biological target: BMP-2-inducible protein kinase (Homo sapiens, UniProt Q9NSY1)
[8] = biological target: T2, Serine/threonine-protein kinase TAO2 (Homo sapiens, UniProt Q9UL54)
T2 sequence (Q9UL54 whole entry): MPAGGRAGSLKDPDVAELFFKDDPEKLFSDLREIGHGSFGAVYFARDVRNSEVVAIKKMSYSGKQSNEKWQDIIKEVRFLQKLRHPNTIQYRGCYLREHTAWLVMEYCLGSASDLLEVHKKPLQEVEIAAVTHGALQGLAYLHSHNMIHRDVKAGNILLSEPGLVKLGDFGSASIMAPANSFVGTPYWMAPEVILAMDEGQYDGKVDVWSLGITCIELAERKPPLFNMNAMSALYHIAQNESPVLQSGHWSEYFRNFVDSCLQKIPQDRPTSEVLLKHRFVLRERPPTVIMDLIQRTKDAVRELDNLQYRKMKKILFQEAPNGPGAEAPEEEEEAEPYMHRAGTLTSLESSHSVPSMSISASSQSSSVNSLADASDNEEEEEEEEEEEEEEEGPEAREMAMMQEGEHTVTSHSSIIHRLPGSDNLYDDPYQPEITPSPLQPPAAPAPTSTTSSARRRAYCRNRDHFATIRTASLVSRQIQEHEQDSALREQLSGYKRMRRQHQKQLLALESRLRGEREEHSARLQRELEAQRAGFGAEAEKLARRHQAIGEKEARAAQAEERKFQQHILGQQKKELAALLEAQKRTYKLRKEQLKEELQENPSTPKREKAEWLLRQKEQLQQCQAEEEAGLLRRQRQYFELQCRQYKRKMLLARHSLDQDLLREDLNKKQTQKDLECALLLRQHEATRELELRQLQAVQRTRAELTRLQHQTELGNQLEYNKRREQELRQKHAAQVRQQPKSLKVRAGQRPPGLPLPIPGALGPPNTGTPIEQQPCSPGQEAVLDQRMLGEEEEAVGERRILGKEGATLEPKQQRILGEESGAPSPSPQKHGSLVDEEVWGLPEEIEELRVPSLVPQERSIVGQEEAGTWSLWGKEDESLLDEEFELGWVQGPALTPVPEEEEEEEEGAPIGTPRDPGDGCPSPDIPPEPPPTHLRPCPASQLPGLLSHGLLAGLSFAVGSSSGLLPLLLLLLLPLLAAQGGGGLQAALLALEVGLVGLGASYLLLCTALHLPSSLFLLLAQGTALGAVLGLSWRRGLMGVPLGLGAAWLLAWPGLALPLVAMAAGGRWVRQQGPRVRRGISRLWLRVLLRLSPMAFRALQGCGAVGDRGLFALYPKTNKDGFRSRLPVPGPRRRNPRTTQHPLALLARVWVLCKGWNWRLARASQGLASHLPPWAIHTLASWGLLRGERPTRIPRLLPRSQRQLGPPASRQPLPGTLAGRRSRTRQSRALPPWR

[9] = biological target: Cyclin-dependent kinase 1 (Homo sapiens, UniProt P06493)
[10] = biological target: DnaJ homolog subfamily A member 1 (Homo sapiens, UniProt P31689)
[11] = biological target: Ephrin type-A receptor 2 (Homo sapiens, UniProt P29317)
[12] = biological target: Cyclin-dependent kinase 12 (Homo sapiens, UniProt Q9NYV4)
[13] = biological target: Citron Rho-interacting kinase (Homo sapiens, UniProt O14578)
[14] = biological target: Serine/threonine-protein kinase PAK 2 (Homo sapiens, UniProt Q13177)
[15] = biological target: DNA topoisomerase 2-beta (Homo sapiens, UniProt Q02880)
Note: in the data inactive means no Kd found up to 30 µM.

Chain of Cyclin-dependent kinase 12 (Q9NYV4 whole entry): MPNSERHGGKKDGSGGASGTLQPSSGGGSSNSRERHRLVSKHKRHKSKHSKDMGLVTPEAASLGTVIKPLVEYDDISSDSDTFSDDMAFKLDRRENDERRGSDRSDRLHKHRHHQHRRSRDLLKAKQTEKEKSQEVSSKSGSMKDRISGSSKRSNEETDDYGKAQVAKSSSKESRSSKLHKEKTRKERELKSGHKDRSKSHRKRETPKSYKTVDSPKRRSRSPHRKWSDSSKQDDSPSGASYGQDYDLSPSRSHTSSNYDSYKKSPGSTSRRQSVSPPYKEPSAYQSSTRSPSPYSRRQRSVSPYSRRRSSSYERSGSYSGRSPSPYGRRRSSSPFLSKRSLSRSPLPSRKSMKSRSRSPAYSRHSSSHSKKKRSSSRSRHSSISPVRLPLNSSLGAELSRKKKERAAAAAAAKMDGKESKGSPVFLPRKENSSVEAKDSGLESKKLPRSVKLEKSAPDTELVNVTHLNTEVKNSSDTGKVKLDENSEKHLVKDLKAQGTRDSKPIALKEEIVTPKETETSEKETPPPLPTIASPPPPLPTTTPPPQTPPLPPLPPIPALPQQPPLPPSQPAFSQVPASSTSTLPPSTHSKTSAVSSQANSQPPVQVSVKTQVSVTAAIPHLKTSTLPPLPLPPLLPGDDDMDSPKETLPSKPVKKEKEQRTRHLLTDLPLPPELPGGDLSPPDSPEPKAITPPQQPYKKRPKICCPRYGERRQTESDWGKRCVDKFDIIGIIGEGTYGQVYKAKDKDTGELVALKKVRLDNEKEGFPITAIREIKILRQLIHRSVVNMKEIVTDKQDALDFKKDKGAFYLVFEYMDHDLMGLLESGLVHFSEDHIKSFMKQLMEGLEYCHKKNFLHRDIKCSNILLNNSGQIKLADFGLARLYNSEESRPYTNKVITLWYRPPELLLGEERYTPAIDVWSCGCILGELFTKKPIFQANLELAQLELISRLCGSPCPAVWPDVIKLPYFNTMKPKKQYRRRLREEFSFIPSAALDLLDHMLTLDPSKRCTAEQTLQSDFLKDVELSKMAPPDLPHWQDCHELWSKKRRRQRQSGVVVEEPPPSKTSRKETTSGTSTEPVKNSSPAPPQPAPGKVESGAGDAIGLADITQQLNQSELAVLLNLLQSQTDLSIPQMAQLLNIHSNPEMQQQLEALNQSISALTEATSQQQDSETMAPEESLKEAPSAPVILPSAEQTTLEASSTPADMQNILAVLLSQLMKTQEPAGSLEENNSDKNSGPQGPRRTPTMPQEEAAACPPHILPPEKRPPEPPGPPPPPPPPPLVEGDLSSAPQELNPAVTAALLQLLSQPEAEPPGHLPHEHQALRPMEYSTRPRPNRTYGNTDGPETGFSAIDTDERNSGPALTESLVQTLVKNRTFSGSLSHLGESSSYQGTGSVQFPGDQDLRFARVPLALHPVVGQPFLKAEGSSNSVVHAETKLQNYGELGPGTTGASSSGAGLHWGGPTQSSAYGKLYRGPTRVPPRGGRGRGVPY
Chain of Myosin-14 (Q7Z406 whole entry): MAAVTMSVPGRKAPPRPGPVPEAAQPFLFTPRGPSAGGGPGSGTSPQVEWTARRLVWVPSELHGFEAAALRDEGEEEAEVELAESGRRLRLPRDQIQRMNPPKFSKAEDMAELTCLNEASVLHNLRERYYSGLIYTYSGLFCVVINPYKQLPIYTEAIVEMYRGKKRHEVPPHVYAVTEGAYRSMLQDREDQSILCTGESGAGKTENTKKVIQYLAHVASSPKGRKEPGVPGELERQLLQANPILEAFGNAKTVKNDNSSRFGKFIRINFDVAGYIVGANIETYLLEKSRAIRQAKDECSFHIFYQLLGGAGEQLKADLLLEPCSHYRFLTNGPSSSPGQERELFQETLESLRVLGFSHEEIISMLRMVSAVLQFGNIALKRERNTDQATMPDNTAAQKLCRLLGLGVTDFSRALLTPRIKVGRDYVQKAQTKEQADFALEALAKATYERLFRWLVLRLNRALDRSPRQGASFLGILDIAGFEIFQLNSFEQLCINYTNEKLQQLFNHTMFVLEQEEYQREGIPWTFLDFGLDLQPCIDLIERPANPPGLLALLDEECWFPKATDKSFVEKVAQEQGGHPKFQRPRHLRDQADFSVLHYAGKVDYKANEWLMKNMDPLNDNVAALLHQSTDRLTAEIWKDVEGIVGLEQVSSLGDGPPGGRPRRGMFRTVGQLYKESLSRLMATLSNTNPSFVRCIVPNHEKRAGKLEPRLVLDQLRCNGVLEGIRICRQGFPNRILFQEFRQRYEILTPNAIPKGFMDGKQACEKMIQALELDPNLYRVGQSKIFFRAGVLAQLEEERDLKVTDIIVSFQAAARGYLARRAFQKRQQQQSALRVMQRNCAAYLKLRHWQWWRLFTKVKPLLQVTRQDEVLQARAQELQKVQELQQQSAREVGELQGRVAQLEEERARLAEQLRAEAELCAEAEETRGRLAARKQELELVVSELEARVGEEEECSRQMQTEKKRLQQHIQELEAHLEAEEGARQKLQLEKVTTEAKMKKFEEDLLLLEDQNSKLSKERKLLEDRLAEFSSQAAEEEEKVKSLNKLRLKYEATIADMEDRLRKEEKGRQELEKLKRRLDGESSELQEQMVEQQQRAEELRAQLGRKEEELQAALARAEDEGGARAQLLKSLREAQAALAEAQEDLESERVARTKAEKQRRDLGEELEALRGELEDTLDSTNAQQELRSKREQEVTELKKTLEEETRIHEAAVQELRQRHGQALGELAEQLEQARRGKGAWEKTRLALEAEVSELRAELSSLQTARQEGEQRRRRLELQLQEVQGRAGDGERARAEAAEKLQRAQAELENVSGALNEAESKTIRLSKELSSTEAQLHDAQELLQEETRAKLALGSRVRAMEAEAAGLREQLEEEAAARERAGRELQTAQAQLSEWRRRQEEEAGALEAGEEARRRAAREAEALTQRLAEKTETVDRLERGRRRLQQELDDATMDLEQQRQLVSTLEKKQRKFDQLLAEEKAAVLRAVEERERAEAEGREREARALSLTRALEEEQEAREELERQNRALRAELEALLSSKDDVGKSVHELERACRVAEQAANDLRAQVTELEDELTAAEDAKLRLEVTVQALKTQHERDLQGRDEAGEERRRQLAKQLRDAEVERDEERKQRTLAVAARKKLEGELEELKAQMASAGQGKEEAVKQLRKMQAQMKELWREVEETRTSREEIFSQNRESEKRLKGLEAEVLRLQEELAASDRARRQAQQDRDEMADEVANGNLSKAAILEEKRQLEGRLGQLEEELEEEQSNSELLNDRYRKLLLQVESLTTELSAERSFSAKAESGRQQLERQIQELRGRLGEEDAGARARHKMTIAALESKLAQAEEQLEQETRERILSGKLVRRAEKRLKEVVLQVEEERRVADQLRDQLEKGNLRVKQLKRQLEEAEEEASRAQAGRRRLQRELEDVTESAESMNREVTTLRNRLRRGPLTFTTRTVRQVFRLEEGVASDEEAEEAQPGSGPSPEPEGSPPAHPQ
Chain of Cyclin-dependent kinase 3 (Q00526 whole entry): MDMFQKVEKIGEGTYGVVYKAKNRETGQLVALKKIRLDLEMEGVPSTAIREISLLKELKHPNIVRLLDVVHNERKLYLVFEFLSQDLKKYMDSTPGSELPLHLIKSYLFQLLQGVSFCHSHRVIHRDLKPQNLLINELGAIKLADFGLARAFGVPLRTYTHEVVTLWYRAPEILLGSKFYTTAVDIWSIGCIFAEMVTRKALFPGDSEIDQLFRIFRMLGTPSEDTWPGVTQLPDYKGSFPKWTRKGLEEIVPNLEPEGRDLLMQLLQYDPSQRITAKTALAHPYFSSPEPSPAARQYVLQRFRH
Chain of Serine/threonine-protein kinase PAK 2 (Q13177 whole entry): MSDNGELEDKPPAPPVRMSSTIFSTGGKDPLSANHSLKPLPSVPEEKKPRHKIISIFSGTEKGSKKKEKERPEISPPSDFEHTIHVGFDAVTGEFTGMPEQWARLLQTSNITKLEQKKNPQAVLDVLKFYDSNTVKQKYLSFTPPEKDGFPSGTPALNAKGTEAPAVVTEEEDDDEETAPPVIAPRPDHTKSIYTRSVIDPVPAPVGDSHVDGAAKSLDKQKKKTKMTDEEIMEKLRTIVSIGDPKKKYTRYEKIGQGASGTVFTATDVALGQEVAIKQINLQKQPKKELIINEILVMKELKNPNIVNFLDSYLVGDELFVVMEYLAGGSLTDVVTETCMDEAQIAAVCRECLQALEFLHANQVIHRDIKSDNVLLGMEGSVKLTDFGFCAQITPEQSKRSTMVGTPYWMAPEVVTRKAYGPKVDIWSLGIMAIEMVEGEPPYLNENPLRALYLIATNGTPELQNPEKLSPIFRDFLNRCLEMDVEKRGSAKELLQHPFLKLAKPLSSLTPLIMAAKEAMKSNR
Chain of DnaJ homolog subfamily A member 1 (P31689 whole entry): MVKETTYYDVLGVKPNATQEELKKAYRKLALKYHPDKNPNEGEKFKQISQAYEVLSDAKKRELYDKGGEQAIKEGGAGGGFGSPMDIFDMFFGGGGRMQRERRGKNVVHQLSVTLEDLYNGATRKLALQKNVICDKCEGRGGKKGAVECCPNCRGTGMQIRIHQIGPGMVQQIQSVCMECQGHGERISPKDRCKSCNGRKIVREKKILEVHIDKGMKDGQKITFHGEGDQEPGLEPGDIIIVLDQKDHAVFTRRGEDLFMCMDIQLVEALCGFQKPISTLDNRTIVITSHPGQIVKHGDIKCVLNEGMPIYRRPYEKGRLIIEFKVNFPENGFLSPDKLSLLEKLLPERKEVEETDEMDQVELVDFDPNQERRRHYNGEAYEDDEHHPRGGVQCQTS
Chain of Deoxycytidine kinase (P27707 whole entry): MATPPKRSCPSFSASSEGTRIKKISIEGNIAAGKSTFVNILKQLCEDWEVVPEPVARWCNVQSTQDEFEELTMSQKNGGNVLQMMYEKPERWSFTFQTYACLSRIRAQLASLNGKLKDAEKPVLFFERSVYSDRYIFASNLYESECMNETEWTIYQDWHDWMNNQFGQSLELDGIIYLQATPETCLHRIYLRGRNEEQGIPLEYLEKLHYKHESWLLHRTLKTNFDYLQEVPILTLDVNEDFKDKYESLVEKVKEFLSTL

Row | Structure (SMILES) | Kd [1] | Kd [2] | Kd [3] | Kd [4] | Kd [5] | Kd [6] | Kd [7] | Kd [8] | Kd [9] | Kd [10] | Kd [11] | Kd [12] | Kd [13] | Kd [14] | Kd [15]
1 | O=c1sn(-c2cccc3ccccc23)c(=O)n1Cc1ccccc1 [TIDEGLUSIB] | > 30 µM (inactive) | > 30 µM (inactive) | > 30 µM (inactive) | > 30 µM (inactive) | > 30 µM (inactive) | > 30 µM (inactive) | > 30 µM (inactive) | > 30 µM (inactive) | > 30 µM (inactive) | > 30 µM (inactive) | > 30 µM (inactive) | > 30 µM (inactive) | > 30 µM (inactive) | > 30 µM (inactive) | > 30 µM (inactive)
2 | Cn1cc(-c2ccc3nnc(C(F)(F)c4ccc5ncccc5c4)n3n2)cn1 [JNJ-38877605] | > 30 µM (inactive) | > 30 µM (inactive) | > 30 µM (inactive) | > 30 µM (inactive) | > 30 µM (inactive) | > 30 µM (inactive) | > 30 µM (inactive) | > 30 µM (inactive) | > 30 µM (inactive) | > 30 µM (inactive) | > 30 µM (inactive) | > 30 µM (inactive) | > 30 µM (inactive) | > 30 µM (inactive) | > 30 µM (inactive)
3 | Cn1ncc(Cl)c1-c1cc(C(=O)N[C@H](CN)Cc2cccc(F)c2)sc1Cl [AFURESERTIB] | > 30 µM (inactive) | > 30 µM (inactive) | > 30 µM (inactive) | > 30 µM (inactive) | > 30 µM (inactive) | > 30 µM (inactive) | > 30 µM (inactive) | > 30 µM (inactive) | > 30 µM (inactive) | > 30 µM (inactive) | > 30 µM (inactive) | > 30 µM (inactive) | 4.26 µM (active) | > 30 µM (inactive) | > 30 µM (inactive)
4 | CNS(=O)(=O)Nc1nccc(Cc2c(C)c3ccc(Oc4ncccn4)cc3oc2=O)c1F [AVUTOMETINIB] | > 30 µM (inactive) | – | > 30 µM (inactive) | > 30 µM (inactive) | > 30 µM (inactive) | > 30 µM (inactive) | > 30 µM (inactive) | > 30 µM (inactive) | > 30 µM (inactive) | > 30 µM (inactive) | > 30 µM (inactive) | > 30 µM (inactive) | > 30 µM (inactive) | > 30 µM (inactive) | > 30 µM (inactive)
5 | COc1ccc(-c2ccc3c(N4CCOC[C@@H]4C)nc(N4CCOC[C@@H]4C)nc3n2)cc1CO [AZD-8055] | > 30 µM (inactive) | > 30 µM (inactive) | > 30 µM (inactive) | > 30 µM (inactive) | > 30 µM (inactive) | > 30 µM (inactive) | > 30 µM (inactive) | > 30 µM (inactive) | > 30 µM (inactive) | > 30 µM (inactive) | > 30 µM (inactive) | > 30 µM (inactive) | > 30 µM (inactive) | > 30 µM (inactive) | > 30 µM (inactive)
6 | COc1cc2nccc(Oc3ccc(NC(=O)Nc4cc(C)on4)c(Cl)c3)c2cc1OC [TIVOZANIB] | > 30 µM (inactive) | > 30 µM (inactive) | > 30 µM (inactive) | > 30 µM (inactive) | > 30 µM (inactive) | > 30 µM (inactive) | > 30 µM (inactive) | > 30 µM (inactive) | > 30 µM (inactive) | > 30 µM (inactive) | 0.147 µM (active) | > 30 µM (inactive) | > 30 µM (inactive) | > 30 µM (inactive) | > 30 µM (inactive)
